# ChEMBL document CHEMBL4190369, “Indolinone Inhibitors of ENT1 for the Treatment of Schizophrenia” (ACS Med Chem Lett, 2017)
# Tested on: Mus musculus
# Assay: Anti-schizophrenic activity in mouse assessed inhibition of L-687414-induced hyperlocomotion at 30 mg/kg, ip pretreated for 15 mins followed by L-687414 addition measured at 5 mins interval for 30 mins relative to control
# Assay type: functional
row,Compound,inhibition in vivo at 30 mg/kg
1,Cc1ncc(-c2ccc3c(c2)N(c2cnc(C)c(N4CCOCC4)n2)C(=O)C3(C)C)cn1,88.8%
2,Cc1ncc(-c2ccc3c(c2)N(c2cnc4c(c2)C(C)(C)C(=O)N4C)C(=O)C3(C)C)cn1,93.5%
3,Cc1ncc(-c2ccc3c(c2)N(c2ccc4c(c2)N(C)C(=O)CO4)C(=O)C3(C)C)cn1,93.8%
4,Cc1ncc(-c2ccc3c(c2)N(c2cnc(-n4ccnc4C)cn2)C(=O)C3(C)C)cn1,96.3%
5,Cc1ncc(-c2ccc3c(c2)N(c2cncc(N4CCOC4=O)n2)C(=O)C3(C)C)cn1,87.1%
6,Cc1ncc(-c2ccc3c(c2)N(c2cnc(C)c(N4CCOC4=O)n2)C(=O)C3(C)C)cn1,89.7%
7,Cc1ncc(-c2ccc3c(c2)N(c2cncc(N4CCOCC4)n2)C(=O)C3(C)C)cn1,90%
8,Cc1ncc(-c2ccc3c(c2)N(c2cncc(N4CCCC4=O)n2)C(=O)C3(C)C)cn1,87.8%
9,Cc1ncc(-c2ccc3c(c2)N(c2ccc4c(n2)N(C)C(=O)C4(C)C)C(=O)C3(C)C)cn1,99.5%
